According to patent US12428406B2 (PMV Pharmaceuticals, Inc., priority 2019, dated 2025):

molecular target: T1, p53 Y220C (Homo sapiens, UniProt P04637, Y220C); assay: In vitro DNA binding activity assay (HTRF / TR-FRET): stabilization of p53 Y220C and increase of its DNA binding activity; format: biochemical; details: recombinant His-tagged p53 Y220C DNA binding domain (aa 94-312), biotin-labeled consensus DNA, incubated at 27° C. or 29° C. for 60 min
T1 construct: The recombinant protein was a truncation mutant containing only amino acids 94-312 of p53; made in house; host or cells: E. coli
T1 sequence (P04637 94-312, change not shown): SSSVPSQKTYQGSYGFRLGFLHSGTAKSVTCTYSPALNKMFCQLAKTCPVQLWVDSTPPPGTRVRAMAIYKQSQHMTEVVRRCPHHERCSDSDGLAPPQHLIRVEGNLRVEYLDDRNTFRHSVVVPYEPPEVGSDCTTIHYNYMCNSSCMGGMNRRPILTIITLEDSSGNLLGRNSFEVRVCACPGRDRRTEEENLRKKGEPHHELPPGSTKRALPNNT
Procedure, shortened: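 Compounds from 4.5 mM DMSO stocks, 3-fold serial dilutions; room-temperature incubations of 15 and 20 min. SC150 = concentration raising DNA binding by 50% over no-compound control.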

SMILES | SC150 (concentration of the compound required to increase the DNA binding activity by 50%)
COc1cc(S(=O)(=O)N2CCOCC2)ccc1NCC#Cc1cc2c(NC3CCN(CC(O)CO)CC3)cccc2n1CC(F)(F)F (stereo not shown) [Compound 582A, 3-(4-{[2-(3-{[2-methoxy-4-(morpholine-4-sulfonyl)phenyl]amino}prop-1-yn-1-yl)-1-(2,2,2-trifluoroethyl)-1H-indol-4-yl]amino}piperidin-1-yl)propane-1,2-diol] | + (+ = 0 μM ≤ SC150 < 0.05 μM)
CNC(=O)c1ccc(NCC#Cc2cc3c(N[C@H]4CC[C@H](N5CCC(C(F)(F)F)CC5)CC4)cccc3n2CC(F)(F)F)c(OC)c1 [Compound 438A, 3-methoxy-N-methyl-4-{[3-(4-{[(1R,4R)-4-[4-(trifluoro-methyl)piperidin-1-yl]cyclohexyl]amino}-1-(2,2,2-trifluoroethyl)-1H-indol-2-yl)prop-2-yn-1-yl]amino}benzamide] | + (+ = 0 μM ≤ SC150 < 0.05 μM)
CCN1CC[C@@H](Nc2cccc3c2cc(C#CCNc2ccc(S(C)(=O)=O)cc2OC)n3CC(F)(F)F)[C@@H](F)C1 [Compound 812A] | + (+ = 0 μM ≤ SC150 < 0.05 μM)
COc1cc(S(C)(=O)=O)ccc1NCC#Cc1cc2c(N[C@@H]3CCCC[C@@H]3N)cccc2n1CC(F)(F)F [Compound 28A, (1R,2S)-N^1-(2-{3-[(4-methanesulfonyl-2-methoxyphenyl)amino]prop-1-yn-1-yl}-1-(2,2,2-trifluoroethyl)-1H-indol-4-yl)cyclo-hexane-1,2-diamine] | ++ (++ = 0.05 μM ≤ SC150 < 0.1 μM)
COc1cc(NC2CCN(C)CC2)c2cc(C#CCNc3ccc(S(C)(=O)=O)cc3OC)n(CC(F)(F)F)c2c1 [Compound 487A, 2-{3-[(4-methanesulfonyl-2-methoxyphenyl)amino]prop-1-yn-1-yl}-6-methoxy-N-(1-methylpiperidin-4-yl)-1-(2,2,2-trifluoroethyl)-1H-indol-4-amine] | ++ (++ = 0.05 μM ≤ SC150 < 0.1 μM)
COc1cc(S(=O)(=O)N2CCOCC2)ccc1NCC#Cc1cc2c(NC3CCS(=O)(=O)CC3)cccc2n1CC(F)(F)F [Compound 1036A, 4-{[2-(3-{[2-methoxy-4-(morpholine-4-sulfonyl)phenyl]amino}prop-1-yn-1-yl)-1-(2,2,2-trifluoroethyl)-1H-indol-4-yl]amino}-1λ^6-thiane-1,1-dione] | + (+ = 0 μM ≤ SC150 < 0.05 μM)
COc1cc(S(C)(=O)=O)ccc1NCC#Cc1cc2c(N[C@@H]3CC[C@H](N)C[C@H]3F)cccc2n1CC(F)(F)F [Compound 936A] | + (+ = 0 μM ≤ SC150 < 0.05 μM)
COc1cc(S(C)(=O)=O)ccc1NCC#Cc1cc2c(N[C@H]3CC[C@H](N4CCOCC4)CC3)cccc2n1CC(C)C [Compound 179A, 2-{3-[(4-methane-sulfonyl-2-methoxy-phenyl)amino]prop-1-yn-1-yl}-1-(2-methyl-propyl)-N-[(1R,4R)-4-(morpholin-4-yl)cyclohexyl]-1H-indol-4-amine] | ++ (++ = 0.05 μM ≤ SC150 < 0.1 μM)
COc1cc(C(=O)O)ccc1NCC#Cc1cc2c(N[C@H]3CCN(C(C)C)C[C@H]3F)cccc2n1CC(F)(F)F (racemic) [Compound 796A, 4-((3-(4-(((3R,4S)-3-fluoro-1-isopropylpiperidin-4-yl)amino)-1-(2,2,2-trifluoroethyl)-1H-indol-2-yl)prop-2-yn-1-yl)amino)-3-methoxybenzoic acid] | + (+ = 0 μM ≤ SC150 < 0.05 μM)
CN(C)[C@H]1CC[C@H](Nc2cccc3c2cc(C#CCNc2ccc(S(C)(=O)=O)cc2C(F)(F)F)n3CC(F)(F)F)CC1 [Compound 139A, (1R,4R)-N^4-[2-(3-{[4-methanesulfonyl-2-(trifluoromethyl)phenyl]amino}prop-1-yn-1-yl)-1-(2,2,2-trifluoroethyl)-1H-indol-4-yl]-N^1,N^1-dimethylcyclohexane-1,4-diamine] | + (+ = 0 μM ≤ SC150 < 0.05 μM)
COCC(=O)N1CC[C@@H](Nc2cccc3c2cc(C#CCNc2ccc(S(C)(=O)=O)cc2OC)n3CC(F)(F)F)[C@@H](F)C1 [Compound 866A, 1-[(3S,4R)-3-fluoro-4-[(2-{3-[(4-methanesulfonyl-2-methoxyphenyl)amino]prop-1-yn-1-yl}-1-(2,2,2-trifluoroethyl)-1H-indol-4-yl)amino]piperidin-1-yl]-2-methoxyethan-1-one] | + (+ = 0 μM ≤ SC150 < 0.05 μM)
COCC(O)CN1CCC(Nc2cccc3c2cc(C#CCNc2ccc(C(C)(C)C#N)cc2OC)n3CC(F)(F)F)CC1 (stereo not shown) [Compound 665A, 2-(4-{[3-(4-{[1-(2-hydroxy-3-methoxypropyl)piperidin-4-yl]amino}-1-(2,2,2-trifluoroethyl)-1H-indol-2-yl)prop-2-yn-1-yl]amino}-3-methoxyphenyl)-2-methylpropanenitrile] | + (+ = 0 μM ≤ SC150 < 0.05 μM)
COC[C@H](O)CN1CCC(Nc2cccc3c2cc(C#CCNc2ccc(S(C)(=O)=O)cc2OC)n3CC(F)(F)F)CC1 [Compound 611A, (2R)-1-{4-[(2-{3-[(4-methanesulfonyl-2-methoxyphenyl)amino]prop-1-yn-1-yl}-1-(2,2,2-trifluoroethyl)-1H-indol-4-yl)amino]piperidin-1-yl}-3-methoxypropan-2-ol] | + (+ = 0 μM ≤ SC150 < 0.05 μM)
COc1cc(S(C)(=O)=O)ccc1NCC#Cc1cc2c(N[C@H]3CCN(C)C[C@H]3OC)cccc2n1CC(F)(F)F [Compound 531A, 2-{3-[(4-methanesulfonyl-2-methoxyphenyl)amino]prop-1-yn-1-yl}-N-[(3R,4S)-3-methoxy-1-methylpiperidin-4-yl]-1-(2,2,2-trifluoroethyl)-1H-indol-4-amine] | ++ (++ = 0.05 μM ≤ SC150 < 0.1 μM)
COC[C@@H](CN1CCC(Nc2cccc3c2cc(C#CCNc2ccc(S(C)(=O)=O)cc2OC)n3CC(F)(F)F)CC1)OC(=O)C(C)C [Compound 635A, (2R)-1-{4-[(2-{3-[(4-methanesulfonyl-2-methoxyphenyl)amino]prop-1-yn-1-yl}-1-(2,2,2-trifluoroethyl)-1H-indol-4-yl)amino]piperidin-1-yl}-3-methoxypropan-2-yl 2-methylpropanoate] | + (+ = 0 μM ≤ SC150 < 0.05 μM)
COc1cc(C(=O)O)ccc1NCC#Cc1cc2c(N[C@H]3CCN(CCO)C[C@H]3F)cccc2n1CC(F)(F)F [Compound 912A, 4-{[3-(4-{[(3R,4S)-3-fluoro-1-(2-hydroxyethyl)piperidin-4-yl]amino}-1-(2,2,2-trifluoroethyl)-1H-indol-2-yl)prop-2-yn-1-yl]amino}-3-methoxybenzoic acid] | + (+ = 0 μM ≤ SC150 < 0.05 μM)
COc1cc(C(=O)Nc2nccs2)ccc1NCC#Cc1cc2c(N[C@@H]3CCN(C)C[C@@H]3F)cccc2n1CC(F)(F)F [Compound 917A] | + (+ = 0 μM ≤ SC150 < 0.05 μM)
CCC(=O)N1CC[C@@H](Nc2cccc3c2cc(C#CCNc2ccc(S(C)(=O)=O)cc2OC)n3CC(F)(F)F)[C@@H](F)C1 [Compound 864A, 1-[(3S,4R)-3-fluoro-4-[(2-{3-[(4-methanesulfonyl-2-methoxyphenyl)amino]prop-1-yn-1-yl}-1-(2,2,2-trifluoroethyl)-1H-indol-4-yl)amino]piperidin-1-yl]propan-1-one] | + (+ = 0 μM ≤ SC150 < 0.05 μM)
CCOCC(O)CN1CCC(Nc2cccc3c2cc(C#CCNc2ccc(S(C)(=O)=O)cc2OC)n3CC(F)(F)F)CC1 (stereo not shown) [Compound 660A, 1-ethoxy-3-{4-[(2-{3-[(4-methanesulfonyl-2-methoxyphenyl)amino]prop-1-yn-1-yl}-1-(2,2,2-trifluoroethyl)-1H-indol-4-yl)amino]piperidin-1-yl}propan-2-ol] | + (+ = 0 μM ≤ SC150 < 0.05 μM)
COC[C@H](CN1CCC(Nc2cccc3c2cc(C#CCNc2ccc(S(C)(=O)=O)cc2OC)n3CC(F)(F)F)CC1)OC(=O)C(C)C [Compound 638A, (2S)-1-{4-[(2-{3-[(4-methanesulfonyl-2-methoxyphenyl)amino]prop-1-yn-1-yl}-1-(2,2,2-trifluoroethyl)-1H-indol-4-yl)amino]piperidin-1-yl}-3-methoxypropan-2-yl 2-methylpropanoate] | + (+ = 0 μM ≤ SC150 < 0.05 μM)
COc1cc(S(C)(=O)=O)ccc1NCC#Cc1cc2c(NC3CC(CO)(CCl)C3)cccc2n1CC(F)(F)F (stereo not shown) [Compound 19A, [1-(chloromethyl)-3-[(2-{3-[(4-methanesulfonyl-2-methoxyphenyl)amino]prop-1-yn-1-yl}-1-(2,2,2-trifluoroethyl)-1H-indol-4-yl)amino]cyclobutyl]methanol] | + (+ = 0 μM ≤ SC150 < 0.05 μM)
CS(=O)(=O)c1ccc(NCC#Cc2cc3c(N[C@H]4CC[C@H](N5CC6(CCOCC6)C5)CC4)cccc3n2CC(F)(F)F)c(OCC#N)c1 [Compound 303A, 2-(5-methanesulfonyl-2-{[3-(4-{[(1R,4R)-4-{7-oxa-2-azaspiro[3.5]nonan-2-yl}cyclohexyl]amino}-1-(2,2,2-trifluoroethyl)-1H-indol-2-yl)prop-2-yn-1-yl]amino}phenoxy)acetonitrile] | + (+ = 0 μM ≤ SC150 < 0.05 μM)
